Values quoted from earlier work in EP3155636B1, “A PROBE FOR EXTRACTION OF MOLECULES OF INTEREST FROM A SAMPLE” (JP Scientific Limited, priority 2014, dated 2015).

Details: listed with the MS/MS parameters of 21 WADA controlled substances; source and method not stated

SMILES	Log P
Cc1cc(SCc2sc(-c3ccc(C(F)(F)F)cc3)nc2C)ccc1OCC(=O)O [GW501516]	6.29
CCN(CC)C(=O)c1cccnc1 [Nikethamide]	0.33
C=C1C[C@@H]2[C@H](CC[C@]3(C)C(=O)CC[C@@H]23)[C@@]2(C)C=CC(=O)C=C12 [Exemestane]	3.70

Second part, the molecule after the results:

Log P	SMILES
2.14	CC(C)NCC(O)COc1ccc(COCCOC(C)C)cc1 (stereo not drawn) [Bisoprolol]
0.64	CC(C)(C)NCC(O)c1ccc(O)c(CO)c1 (stereo not drawn) [Salbutamol]
6.80	CN(C)CCOc1ccc(/C(=C(/CCCl)c2ccccc2)c2ccccc2)cc1 [Toremifene]
